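Exposure lasted 48 hours, with cells grown in 96-well plates and compounds tested at five concentrations. Abbreviation: GI50, concentration required for 50% inhibition of growth.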 Calls of active or inactive are those of the source. No stated cut-off is given here; in the data, active = GI50 up to about 1.1 µM and inactive = higher.
What was measured:
Experiment in all cases: inhibition of tumour cell growth, NCI panel, 48 h
[1] = test system: 786-0
[2] = test system: A498
[3] = test system: A549
[4] = test system: ACHN
[5] = test system: BT-549
[6] = test system: CAKI-1
[7] = test system: CCRF-CEM
[8] = test system: COLO 205
[9] = test system: DU-145
[10] = test system: EKVX
[11] = test system: HCC 2998
[12] = test system: HCT-116
[13] = test system: HCT-15
[14] = test system: HL-60
[15] = test system: HOP-62
[16] = test system: HOP-92
[17] = test system: HT-29
[18] = test system: Hs-578T
[19] = test system: IGROV-1
[20] = test system: K562
[21] = test system: KM12
[22] = test system: LOX IMVI
[23] = test system: M14
[24] = test system: MCF7
[25] = test system: MDA-MB-231
[26] = test system: MDA-MB-435
[27] = test system: MDA-N
[28] = test system: MOLT-4
[29] = test system: Malme-3M
[30] = test system: NCI-H226
[31] = test system: NCI-H23
[32] = test system: NCI-H460
[33] = test system: NCI-H522
[34] = test system: NCI/ADR-RES
[35] = test system: OVCAR-3
[36] = test system: OVCAR-4
[37] = test system: OVCAR-5
[38] = test system: OVCAR-8
[39] = test system: PC-3
[40] = test system: RPMI-8226
[41] = test system: RXF 393
[42] = test system: SF-268
[43] = test system: SF-295
[44] = test system: SF-539
[45] = test system: SK-MEL-28
[46] = test system: SK-MEL-2
[47] = test system: SK-MEL-5
[48] = test system: SK-OV-3
[49] = test system: SN12C
[50] = test system: SNB-19
[51] = test system: SNB-75
[52] = test system: SR
[53] = test system: SW-620
[54] = test system: T47D
[55] = test system: TK-10
[56] = test system: U-251
[57] = test system: UACC-257
[58] = test system: UACC-62
[59] = test system: UO-31
[60] = test system: DMS-114
[61] = test system: DMS-273
[62] = test system: M19-MEL

COc1cccc([C@H]2C/C(=N\NC(=O)C(=O)N[C@@H](C)c3ccccc3)c3ccccc3N2)c1
GI50 [1]: 0.0374 µM (active)
GI50 [2]: 0.0417 µM (active)
GI50 [3]: 6.15 µM (inactive)
GI50 [4]: 0.0381 µM (active)
GI50 [5]: > 10 µM (inactive)
GI50 [6]: 0.0354 µM (active)
GI50 [7]: 0.0188 µM (active)
GI50 [8]: 0.0167 µM (active)
GI50 [9]: 0.0258 µM (active)
GI50 [10]: 0.0927 µM (active)
GI50 [11]: 0.017 µM (active)
GI50 [12]: 0.0209 µM (active)
GI50 [13]: < 0.01 µM
GI50 [14]: > 10 µM (inactive)
GI50 [15]: 4.51 µM (inactive)
GI50 [16]: 7.5 µM (inactive)
GI50 [17]: > 10 µM (inactive)
GI50 [18]: 0.0237 µM (active)
GI50 [19]: > 10 µM (inactive)
GI50 [20]: < 0.01 µM (active)
GI50 [21]: < 0.01 µM (active)
GI50 [22]: 0.0721 µM (active)
GI50 [23]: 0.0249 µM (active)
GI50 [24]: 9.38 µM (inactive)
GI50 [25]: 0.0923 µM (active)
GI50 [26]: < 0.01 µM (active)
GI50 [27]: < 0.01 µM (active)
GI50 [28]: > 10 µM (inactive)
GI50 [29]: > 10 µM (inactive)
GI50 [30]: 0.0314 µM (active)
GI50 [31]: > 10 µM (inactive)
GI50 [32]: > 10 µM (inactive)
GI50 [33]: 9.42 µM (inactive)
GI50 [34]: 7.05 µM (inactive)
GI50 [35]: 0.0181 µM (active)
GI50 [36]: 7.48 µM (inactive)
GI50 [37]: 16.8 µM (inactive)
GI50 [38]: 6.41 µM (inactive)
GI50 [39]: 0.0263 µM (active)
GI50 [40]: < 0.01 µM (active)
GI50 [41]: 5.5 µM (inactive)
GI50 [42]: 7.05 µM (inactive)
GI50 [43]: < 0.01 µM (active)
GI50 [44]: 7.82 µM (inactive)
GI50 [45]: 0.0673 µM (active)
GI50 [46]: 3.69 µM (inactive)
GI50 [47]: < 0.01 µM (active)
GI50 [48]: 0.0491 µM (active)
GI50 [49]: 0.0184 µM (active)
GI50 [50]: 6.52 µM (inactive)
GI50 [51]: 8.53 µM (inactive)
GI50 [52]: > 10 µM (inactive)
GI50 [53]: 0.0339 µM (active)
GI50 [54]: > 10 µM (inactive)
GI50 [55]: > 10 µM (inactive)
GI50 [56]: 7.67 µM (inactive)
GI50 [57]: 0.0361 µM (active)
GI50 [58]: < 0.01 µM (active)
GI50 [59]: 0.0378 µM (active)

O=C1N[C@@H]2CCC[C@@H]2[C@@H]1c1ccc(Cl)cc1
GI50 [3]: > 100 µM (inactive)
GI50 [6]: > 100 µM (inactive)
GI50 [7]: > 100 µM (inactive)
GI50 [8]: > 100 µM (inactive)
GI50 [60]: 70 µM (inactive)
GI50 [61]: > 100 µM (inactive)
GI50 [10]: > 100 µM (inactive)
GI50 [13]: > 100 µM
GI50 [14]: > 100 µM (inactive)
GI50 [17]: > 100 µM (inactive)
GI50 [19]: > 100 µM (inactive)
GI50 [20]: > 100 µM (inactive)
GI50 [21]: > 100 µM (inactive)
GI50 [22]: > 100 µM (inactive)
GI50 [23]: > 100 µM (inactive)
GI50 [62]: > 100 µM (inactive)
GI50 [28]: > 100 µM (inactive)
GI50 [30]: 87.9 µM (inactive)
GI50 [31]: > 100 µM (inactive)
GI50 [33]: > 100 µM (inactive)
GI50 [35]: > 100 µM (inactive)
GI50 [38]: > 100 µM (inactive)
GI50 [40]: > 100 µM (inactive)
GI50 [41]: > 100 µM (inactive)
GI50 [42]: > 100 µM (inactive)
GI50 [43]: > 100 µM (inactive)
GI50 [44]: > 100 µM (inactive)
GI50 [45]: > 100 µM (inactive)
GI50 [47]: > 100 µM (inactive)
GI50 [48]: > 100 µM (inactive)
GI50 [49]: > 100 µM (inactive)
GI50 [50]: > 100 µM (inactive)
GI50 [51]: > 100 µM (inactive)
GI50 [53]: > 100 µM (inactive)
GI50 [55]: > 100 µM (inactive)
GI50 [57]: > 100 µM (inactive)
GI50 [58]: > 100 µM (inactive)
GI50 [59]: 65.2 µM (inactive)

— ChEMBL document CHEMBL1201862, “PubChem BioAssay data set” (2004)
